The subject of this series is mouse primary cortical neurons challenged with camptothecin. Kind of series: Camptothecin-induced neuronal death, test item added 48 hours before camptothecin. Conditions: for neuroprotective and anti-apoptotic effects: 48 h before 1 μM camptothecin; for cell viability: 48 h before 1 μM camptothecin 24 h. The class given is cell-based. The procedure:
Mouse primary neurons were incubated with vehicle or toxins in the absence or presence of different concentrations of compound C added 48 hours before toxin's challenge. After the addition of toxins, cells were further incubated for 24 h.
Mouse primary neurons were incubated with vehicle or toxins in the absence or presence of different concentrations of Herb B added 48 hours before camptothecin's challenge. After the addition of Camptothecin, cells were further incubated for 24 h. Data are represented as % of vehicle control (Mean±SD).
The neuro-protective effects of different concentrations of compound C was investigated using mouse primary cortical neurons challenged with camptothecin, which is a cytotoxic quinoline alkaloid which inhibits the DNA enzyme topoisomerase I (topo I).
Mouse primary neurons were incubated with vehicle or toxins in the absence or presence of different concentrations of compound C added 48 hours before toxin's challenge. After the addition of 1 μM camptothecin, cells were further incubated for 24 h in a final volume of 140 μL per well.
Cells were incubated with vehicle or toxins (at the indicated final concentrations described in plate-layout below) in the absence or presence of different concentrations of compound C added 48 hours before toxin's challenge. After the addition of 1 μM camptothecin, cells were further incubated for 24 h in a final volume of 140 μL per well.

From patent US12594255B2, “Lipids with odd number of carbon atoms and their use as pharmaceutical composition or nutritional supplement” (SunRegen Healthcare AG, priority 2016, dated 2026) come the findings set out here.

For `CCCCCCCCCCCCCCC(=O)OCC(COC(=O)CCCCCCCCCCCCCC)OC(=O)CCCCCCCCCCCCCC` [Compound C, tripentadecanoin], under “10 nM”, the “neuroprotective and anti-apoptotic effects” value turned out to be 37.3%; the cell viability is 73.5±1.5 % of control. Further, under “100 nM”, the “neuroprotective and anti-apoptotic effects” value was found to be 37.2%; the cell viability was 73.4±5.9 % of control.
